{"source": "ChEMBL document CHEMBL1201862", "about": "“PubChem BioAssay data set” (2004)", "key": {"[1]": {"biological_target": "Acyl-homoserine lactone acylase PvdQ (Pseudomonas aeruginosa (strain LESB58), UniProt Q9I194)", "sequence (Q9I194 24-193 limits assumed)": "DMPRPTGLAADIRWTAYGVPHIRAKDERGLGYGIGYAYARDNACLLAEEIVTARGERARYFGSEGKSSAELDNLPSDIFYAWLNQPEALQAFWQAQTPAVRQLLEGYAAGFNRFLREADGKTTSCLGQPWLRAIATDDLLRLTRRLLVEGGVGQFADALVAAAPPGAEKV", "sequence (Q9I194 217-762 limits assumed)": "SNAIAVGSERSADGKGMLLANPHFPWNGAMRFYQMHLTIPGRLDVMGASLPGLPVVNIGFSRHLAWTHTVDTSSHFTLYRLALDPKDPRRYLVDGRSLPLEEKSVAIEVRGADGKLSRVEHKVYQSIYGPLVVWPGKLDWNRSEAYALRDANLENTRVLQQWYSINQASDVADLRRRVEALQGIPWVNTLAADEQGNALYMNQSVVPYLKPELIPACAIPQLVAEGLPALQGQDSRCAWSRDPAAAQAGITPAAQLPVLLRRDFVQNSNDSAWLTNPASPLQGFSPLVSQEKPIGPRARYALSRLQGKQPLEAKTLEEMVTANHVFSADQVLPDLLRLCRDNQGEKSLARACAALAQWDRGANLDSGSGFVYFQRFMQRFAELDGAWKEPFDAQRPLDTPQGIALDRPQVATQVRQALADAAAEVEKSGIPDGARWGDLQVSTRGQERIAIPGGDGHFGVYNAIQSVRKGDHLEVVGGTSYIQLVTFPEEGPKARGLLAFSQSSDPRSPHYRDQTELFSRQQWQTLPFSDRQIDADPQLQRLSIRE", "test": "PvdQ acylase enzyme activity blockers – biochemical, fluorescence, plate reader and imaging, cherry-picks, dose response (AID 493231)"}, "Kallikrein-7": {"biological_target": "Kallikrein-7 (Homo sapiens, UniProt P49862)", "sequence (P49862 whole entry)": "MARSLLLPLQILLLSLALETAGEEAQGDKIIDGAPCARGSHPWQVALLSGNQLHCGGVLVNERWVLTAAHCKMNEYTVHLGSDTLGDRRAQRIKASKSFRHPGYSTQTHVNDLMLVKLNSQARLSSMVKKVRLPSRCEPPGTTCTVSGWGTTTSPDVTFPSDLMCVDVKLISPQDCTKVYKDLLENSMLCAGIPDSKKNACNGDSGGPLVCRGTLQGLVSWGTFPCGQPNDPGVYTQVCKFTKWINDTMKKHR", "test": "Fluorescence Intensity-based biochemical primary high throughput dose response assay to identify activators of kallikrein-7 (K7) zymogen."}, "[2]": {"biological_target": "Luciferin 4-monooxygenase (Photinus pyralis, UniProt P08659)", "sequence (P08659 whole entry)": "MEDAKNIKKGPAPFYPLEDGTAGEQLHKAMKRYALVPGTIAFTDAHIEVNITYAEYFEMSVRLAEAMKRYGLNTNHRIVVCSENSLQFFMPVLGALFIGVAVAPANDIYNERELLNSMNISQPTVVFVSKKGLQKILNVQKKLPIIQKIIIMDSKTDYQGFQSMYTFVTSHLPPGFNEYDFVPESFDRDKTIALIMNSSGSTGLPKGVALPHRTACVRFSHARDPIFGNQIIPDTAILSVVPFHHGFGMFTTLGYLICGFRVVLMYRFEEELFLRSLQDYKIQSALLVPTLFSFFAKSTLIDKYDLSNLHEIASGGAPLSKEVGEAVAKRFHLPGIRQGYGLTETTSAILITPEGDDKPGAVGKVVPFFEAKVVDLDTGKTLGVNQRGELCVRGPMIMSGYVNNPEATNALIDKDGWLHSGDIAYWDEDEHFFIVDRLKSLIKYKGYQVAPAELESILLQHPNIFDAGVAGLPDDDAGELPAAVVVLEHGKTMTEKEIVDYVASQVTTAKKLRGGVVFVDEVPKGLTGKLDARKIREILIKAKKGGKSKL", "test": "Counter Screen for Luciferase-based Assay Positives. [Related pubchem assays: 620, 618, 411 ]"}, "HT-1080": {"test_system": "HT-1080", "test": "HT1080 cell viability loss – fluorescence readout (AID 620)", "format": "functional, cell-based", "settings": "Homo sapiens"}, "[3]": {"biological_target": "T1, Oxysterols receptor LXR-beta (Homo sapiens, UniProt P55055)", "T1 sequence (P55055 whole entry)": "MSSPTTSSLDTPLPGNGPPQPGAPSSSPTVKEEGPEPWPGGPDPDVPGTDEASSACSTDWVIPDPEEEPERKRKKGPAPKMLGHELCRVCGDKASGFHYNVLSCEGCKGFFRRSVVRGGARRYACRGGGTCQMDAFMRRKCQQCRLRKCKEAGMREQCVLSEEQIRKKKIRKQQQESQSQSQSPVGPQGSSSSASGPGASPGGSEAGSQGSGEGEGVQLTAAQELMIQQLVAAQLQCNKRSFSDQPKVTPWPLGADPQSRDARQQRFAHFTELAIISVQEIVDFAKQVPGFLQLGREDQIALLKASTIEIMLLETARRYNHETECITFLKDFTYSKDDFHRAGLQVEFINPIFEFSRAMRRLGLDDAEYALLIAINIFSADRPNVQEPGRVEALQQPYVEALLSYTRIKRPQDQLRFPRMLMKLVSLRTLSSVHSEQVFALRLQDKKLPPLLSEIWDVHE", "format": "functional, cell-based"}, "cells [4]": {"test": "cells"}, "Paired box protein Pax-8": {"biological_target": "Paired box protein Pax-8 (Homo sapiens, UniProt Q06710)", "sequence (Q06710 whole entry)": "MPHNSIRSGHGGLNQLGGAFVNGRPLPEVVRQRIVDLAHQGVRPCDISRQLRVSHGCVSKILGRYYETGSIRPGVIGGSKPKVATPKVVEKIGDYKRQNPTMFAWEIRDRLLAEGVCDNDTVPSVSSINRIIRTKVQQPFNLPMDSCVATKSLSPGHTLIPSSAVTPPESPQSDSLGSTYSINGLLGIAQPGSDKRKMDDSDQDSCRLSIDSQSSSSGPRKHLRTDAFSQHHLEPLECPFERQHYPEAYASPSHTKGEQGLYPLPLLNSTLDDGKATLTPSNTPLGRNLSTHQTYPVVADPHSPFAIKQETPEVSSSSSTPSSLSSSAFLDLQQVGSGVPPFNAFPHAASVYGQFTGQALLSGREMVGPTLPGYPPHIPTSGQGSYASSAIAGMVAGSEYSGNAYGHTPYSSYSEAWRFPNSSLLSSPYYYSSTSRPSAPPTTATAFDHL", "test": "PAX8 transcriptional activity inhibition in RMG-I – RMG-I cells, luciferase, cherry-pick, dose response (AID 687027);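 further: luciferase reporter driven by Pax8 target thyroperoxidase promoter measured by SteadyGlo luminescence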", "format": "functional, cell-based"}, "[5]": {"test": "A2780 cell killing – plate reader, dry powder samples, cytotoxicity control, dose response (AID 743046)", "format": "functional, cell-based"}, "[6]": {"test": "OVCAR-3 cell viability loss – plate reader, dry powder samples, PAX8 inhibitor project, dose response (AID 743044)", "format": "functional, cell-based"}, "[7]": {"test": "OVCAR8 cell viability loss – plate reader, dry powder samples, PAX8 project, dose response (AID 743197)", "format": "functional, cell-based", "settings": "OVCAR-8"}, "[8]": {"test": "Late-stage results from the probe development effort to identify antagonists of arginine vasopressin receptor 1a (AVPR1a): fluorescence-based cell-based dose response AVPR1a inhibition assay.", "format": "functional"}, "Vasopressin V1b receptor": {"biological_target": "Vasopressin V1b receptor (Homo sapiens, UniProt P47901)", "sequence (P47901 whole entry)": "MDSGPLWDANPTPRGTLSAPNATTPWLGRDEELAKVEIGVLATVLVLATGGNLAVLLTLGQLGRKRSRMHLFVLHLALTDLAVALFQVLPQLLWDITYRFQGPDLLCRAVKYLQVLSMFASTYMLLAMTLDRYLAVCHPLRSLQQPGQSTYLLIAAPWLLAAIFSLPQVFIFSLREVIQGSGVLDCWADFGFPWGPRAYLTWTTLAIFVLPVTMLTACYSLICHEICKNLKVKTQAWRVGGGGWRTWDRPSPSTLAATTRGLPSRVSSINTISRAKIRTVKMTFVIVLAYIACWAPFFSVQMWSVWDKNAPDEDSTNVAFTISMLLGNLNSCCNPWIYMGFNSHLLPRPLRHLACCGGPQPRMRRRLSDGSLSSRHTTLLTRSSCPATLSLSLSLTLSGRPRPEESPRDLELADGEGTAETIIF", "test": "Late-stage results from the probe development effort to identify antagonists of arginine vasopressin receptor 1a (AVPR1a): fluorescence-based cell-based dose response AVPR1b inhibition counterscreen assay.", "format": "functional"}, "Vasopressin V2 receptor": {"biological_target": "Vasopressin V2 receptor (Homo sapiens, UniProt P30518)", "sequence (P30518 whole entry)": "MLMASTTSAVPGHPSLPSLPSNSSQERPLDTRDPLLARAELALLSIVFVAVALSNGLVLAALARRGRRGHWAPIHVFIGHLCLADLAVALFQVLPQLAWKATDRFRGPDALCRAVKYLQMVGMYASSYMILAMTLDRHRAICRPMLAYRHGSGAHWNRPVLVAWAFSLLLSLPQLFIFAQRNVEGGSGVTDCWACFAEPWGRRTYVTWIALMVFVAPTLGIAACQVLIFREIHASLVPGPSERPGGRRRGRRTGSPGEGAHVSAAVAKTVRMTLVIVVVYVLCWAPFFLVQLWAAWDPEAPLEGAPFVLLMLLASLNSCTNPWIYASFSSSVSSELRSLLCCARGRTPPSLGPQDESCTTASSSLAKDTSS", "test": "Late-stage results from the probe development effort to identify antagonists of arginine vasopressin receptor 1a (AVPR1a): fluorescence-based cell-based dose response AVPR2 inhibition counterscreen assay.", "format": "functional"}, "[9]": {"test": "Late-stage results from the probe development effort to identify antagonists of arginine vasopressin receptor 1a (AVPR1a): fluorescence-based cell-based dose response OXTR inhibition counterscreen assay.", "format": "functional"}, "[10]": {"biological_target": "T2, Alkaline phosphatase, tissue-nonspecific isozyme (Homo sapiens, UniProt P05186)", "T2 sequence (P05186 whole entry)": "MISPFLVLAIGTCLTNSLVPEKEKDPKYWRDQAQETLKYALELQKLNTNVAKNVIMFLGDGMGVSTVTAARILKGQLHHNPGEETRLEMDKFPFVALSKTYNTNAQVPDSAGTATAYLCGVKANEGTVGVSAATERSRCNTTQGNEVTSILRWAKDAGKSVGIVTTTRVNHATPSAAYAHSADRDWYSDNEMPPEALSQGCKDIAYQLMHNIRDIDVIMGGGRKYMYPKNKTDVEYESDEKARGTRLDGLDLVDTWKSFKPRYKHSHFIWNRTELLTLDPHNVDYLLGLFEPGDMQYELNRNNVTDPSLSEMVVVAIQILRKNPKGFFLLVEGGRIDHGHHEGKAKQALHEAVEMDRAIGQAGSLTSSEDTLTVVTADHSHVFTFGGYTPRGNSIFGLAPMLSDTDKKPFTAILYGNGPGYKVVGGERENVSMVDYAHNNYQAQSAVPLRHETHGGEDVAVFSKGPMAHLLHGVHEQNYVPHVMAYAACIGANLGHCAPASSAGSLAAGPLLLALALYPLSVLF"}, "[11]": {"test": "viability of PTEN-deleted HCT116 cells – cell-based, HCT116 PTEN knockout, dose response (AID 1047);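 further: HCT116 colon tumor cells with PTEN knocked out; cells exposed to compound for 60 hours before readout; potency for loss of cell viability measured by luminescence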", "format": "functional"}, "[12]": {"test": "viability of HCT116 lacking mutant beta-catenin – cell-based, human colon tumor, dose response (AID 1045);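 further: HCT116 colon tumor cells with beta catenin knocked out; cells exposed to compound for 60 hours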", "format": "functional"}, "cells [13]": {"test": "cells", "format": "functional, cell-based"}, "[14]": {"test": "M. tuberculosis H37Rv growth inhibitors, H37Rv strain (AID 1626)", "format": "functional"}, "cells [15]": {"test": "cells", "format": "functional, cell-based", "remark": "listed apart in the source"}, "[16]": {"test": "Dd2 parasite growth inhibition in erythrocytes – SYBR Green, dry powder samples, set 9, dose response (AID 1159568)", "format": "functional, cell-based"}}, "note": "Active and inactive are the calls of the source.", "data": [{"smiles": "O=CNC1(c2ccccc2)CCCCC1", "values": [{"measurement": "AC50", "setting": "[1]", "value": "1.96 µM (active)"}]}, {"smiles": "Cc1cccc(C(=O)/N=c2/c(C#N)cc3c(=O)n4cccc(C)c4nc3n2Cc2ccco2)c1", "values": [{"measurement": "EC50", "setting": "Kallikrein-7", "value": "65.6 µM (inactive)"}]}, {"smiles": "Cc1ccc(-c2nc3cc(C)ccc3o2)cc1", "values": [{"measurement": "EC50", "setting": "[2]", "value": "1.59 µM (active)"}, {"measurement": "EC50", "setting": "HT-1080", "value": "> 50 µM (not active)"}, {"measurement": "EC50", "setting": "[3]", "value": "> 67.5 µM (inactive)"}, {"measurement": "EC50", "setting": "cells [4]", "value": "> 67.5 µM (inactive)"}]}, {"smiles": "C[C@@H]1CCCCO[C@@H](CN(C)Cc2ccc(C(F)(F)F)cc2)[C@H](C)CN([C@H](C)CO)C(=O)c2cc(NC(=O)Nc3ccccc3)ccc2O1", "values": [{"measurement": "AC50", "setting": "Paired box protein Pax-8", "value": "4.86 µM (active)"}, {"measurement": "AC50", "setting": "[5]", "value": "57 µM (active)"}, {"measurement": "AC50", "setting": "[6]", "value": "28.1 µM (active)"}, {"measurement": "AC50", "setting": "[7]", "value": "36 µM (active)"}]}, {"smiles": "C[C@@H]1CN([C@H](C)CO)C(=O)c2cc(NC(=O)Cc3ccccc3)ccc2O[C@@H](C)CCCCO[C@@H]1CN(C)Cc1ccc(C(F)(F)F)cc1", "values": [{"measurement": "AC50", "setting": "Paired box protein Pax-8", "value": "7.22 µM (active)"}, {"measurement": "AC50", "setting": "[6]", "value": "17.5 µM (active)"}, {"measurement": "AC50", "setting": "[7]", "value": "43.2 µM (active)"}]}, {"smiles": "N#Cc1cccnc1N1CCN(C(=O)N(CC2CC2)c2ccc(Cl)cc2)CC1", "values": [{"measurement": "IC50", "setting": "[8]", "value": "0.0806 µM (active)"}, {"measurement": "IC50", "setting": "Vasopressin V1b receptor", "value": "> 50 µM (inactive)"}, {"measurement": "IC50", "setting": "Vasopressin V2 receptor", "value": "> 50 µM (inactive)"}, {"measurement": "IC50", "setting": "[9]", "value": "> 50 µM (inactive)"}]}, {"smiles": "Cc1cccnc1N1CCC(C(=O)N(CC2CC2)c2ccc(Cl)cc2)CC1", "values": [{"measurement": "IC50", "setting": "[8]", "value": "0.0075 µM (active)"}, {"measurement": "IC50", "setting": "Vasopressin V1b receptor", "value": "12.6 µM (inactive)"}, {"measurement": "IC50", "setting": "Vasopressin V2 receptor", "value": "15.7 µM (inactive)"}, {"measurement": "IC50", "setting": "[9]", "value": "2.6 µM (active)"}]}, {"smiles": "Cc1ccc(/C=N/Nc2cccc3cccnc23)c(O)c1", "values": [{"measurement": "EC50", "setting": "[10]", "value": "> 100 µM (not active)"}]}, {"smiles": "C=CCn1/c(=N/C(=O)c2ccc(S(=O)(=O)N3CCc4ccccc4C3)cc2)sc2cc(S(N)(=O)=O)ccc21", "values": [{"measurement": "EC50", "setting": "[11]", "value": "5.77 µM (active)"}, {"measurement": "EC50", "setting": "[12]", "value": "4.56 µM (active)"}, {"measurement": "EC50", "setting": "Kallikrein-7", "value": "> 69.5 µM (inactive)"}]}, {"smiles": "COc1ccc(/N=C2/C(=O)N3CCCc4cccc2c43)cc1", "values": [{"measurement": "EC50", "setting": "cells [13]", "value": "> 350 µM (not active)"}, {"measurement": "IC50", "setting": "[14]", "value": "> 100 µM (active)"}, {"measurement": "EC50", "setting": "cells [15]", "value": "> 350 µM (not active)"}]}, {"smiles": "COc1ccccc1-c1ccc2c(c1)[C@@H]1[C@@H](CCN1C(=O)C1CCC1)[C@H](CO)N2", "values": [{"measurement": "AC50", "setting": "[16]", "value": "2.92 µM (active)"}]}, {"smiles": "CCCNC(=O)N1[C@H](C#N)[C@H](c2ccccc2C2=CCCCC2)[C@@H]1CO", "values": [{"measurement": "AC50", "setting": "[16]", "value": "7.06 µM (active)"}]}]}
